# Measured values: patent US20230365563A1, “QUINAZOLINE COMPOUND AND APPLICATION THEREOF” (SHANGHAI PHARMACEUTICALS HOLDING CO., LTD., priority 2020, published 2023)
# Where a name gives a salt, the structure may show the parent alone.
# How the values were obtained:
# [1] = molecular target: T1, KRAS_WT and SOS1 (Homo sapiens, UniProt P01116); experiment: Inhibition of KRAS_WT/SOS1 binding (Cisbio binding kit, 665/615 ratio), Effect Embodiment C; conditions: read-out: GTP-KRAS-WT:SOS1 IC50
# T1 construct: purchased
# Description: The inhibitory ability of small molecule compounds on the binding activity of KRAS_WT and SOS1 was examined by a drug screening system based on the combination of KRAS_WT and SOS1.
# (§1) Similarly, the first dilution point of the compound to be tested was its storage solution, and the solution was 3-fold diluted, with 11+0 points of dilution. Echo was used to transfer 0.2 μL gradient diluted solution of the compounds into a 384-well plate, with 2 duplicated wells for each compound, and the final concentration of DMSO was 1%. The solution was centrifuged for 1 min at 1000 rpm/min.
# (§2) IC50 of the compounds was fitted by Graphpad Prism 8 nonlinear regression equation: […]
# (§3) The IC50 (half inhibitory concentration) of the compound was obtained by using the following nonlinear fitting formula: […]
# [2] = molecular target: T2, KRAS-G12D and SOS1 (Homo sapiens, UniProt P01116, G12D); experiment: Inhibition of KRAS-G12D/SOS1 binding (Cisbio binding kit, 665/615 ratio), Effect Embodiment A; conditions: read-out: GTP-KRAS-G12D:SOS1 IC50
# T2 construct: purchased
# Method in brief: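 Test compounds were serially diluted 3-fold from the storage solution over 11 points and dispensed in duplicate wells at 1% final DMSO.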
# [3] = molecular target: T3, KRAS_G12D and cRAF (Homo sapiens, UniProt P01116, G12D); experiment: Inhibition of KRAS_G12D/cRAF binding (Cisbio binding kit, 665/615 ratio), Effect Embodiment B; conditions: read-out: GTP-KRAS-G12D:CRAF IC50
# T3 construct: purchased
# Description: as §1, §2, §3
# T2 sequence (P01116 1-188 isoform P01116-2 G12D): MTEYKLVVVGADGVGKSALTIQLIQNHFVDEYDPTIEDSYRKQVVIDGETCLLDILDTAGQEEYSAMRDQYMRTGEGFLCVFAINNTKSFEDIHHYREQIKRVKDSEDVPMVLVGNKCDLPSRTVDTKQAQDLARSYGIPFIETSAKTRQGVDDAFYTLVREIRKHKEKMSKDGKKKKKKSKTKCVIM
# T3 sequence (P01116 1-188 isoform P01116-2 G12D): as above
# T1 sequence (P01116 1-188 isoform P01116-2): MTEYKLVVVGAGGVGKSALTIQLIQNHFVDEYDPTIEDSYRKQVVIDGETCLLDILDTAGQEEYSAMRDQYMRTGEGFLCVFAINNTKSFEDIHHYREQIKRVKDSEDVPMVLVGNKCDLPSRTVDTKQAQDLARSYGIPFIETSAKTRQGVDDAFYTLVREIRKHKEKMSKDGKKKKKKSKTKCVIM
IC50 [1] [nM],IC50 [2] [nM],IC50 [3] [nM],Compound
1690,44.3,155,"CC(C)N(C)CCCOc1nc(N2CC3CCC(C2)N3)c2cc(Cl)c(-c3cc(O)cc4ccccc34)c(F)c2n1 (single isomer, unassigned) [Compound 50a, 4-((S or R)-4-((1R,5S)-3,8-diazabicyclo[3.2.1]octan-3-yl)-6-chloro-8-fluoro-2-(3-(isopropyl(methyl)amino)propoxy)quinazolin-7-yl)naphthalen-2-ol trifluoroacetate]"
1420,30.8,144,"CCCN(C)CCCOc1nc(N2CC3CCC(C2)N3)c2cc(Cl)c(-c3cc(O)cc4ccccc34)c(F)c2n1 (single isomer, unassigned) [Compound 51a, 4-((S or R)-4-((1R,5S)-3,8-diazabicyclo[3.2.1]octan-3-yl)-6-chloro-8-fluoro-2-(3-(methyl(propyl)amino)propoxy)quinazolin-7-yl)naphthalen-2-ol carboxylate]"
2170,59.7,147,"CCN(CC)CCCOc1nc(N2CC3CCC(C2)N3)c2cc(Cl)c(-c3cc(O)cc4ccccc34)c(F)c2n1 (single isomer, unassigned) [Compound 53a, 4-((S or R)-4-((1R,5S)-3,8-diazabicyclo[3.2.1]octan-3-yl)-6-chloro-2-(3-(diethylamino)propoxy)-8-fluoroquinazolin-7-yl)naphthalen-2-ol]"
1190,26.2,103,"Oc1cc(-c2c(Cl)cc3c(N4CC5CCC(C4)N5)nc(OCCCN4CCOCC4)nc3c2F)c2ccccc2c1 (single isomer, unassigned) [Compound 54a, 4-((S or R)-4-((1R,5S)-3,8-diazabicyclo[3.2.1]octan-3-yl)-6-chloro-8-fluoro-2-(3-morpholinopropoxy)quinazolin-7-yl)naphthalen-2-ol]"
> 100000,1120,9950,"CN(C)CCCNc1nc(N2C[C@H]3CC[C@@H](C2)N3)c2cc(Cl)c(-c3cc(O)cc4ccccc34)c(F)c2n1 (single isomer, unassigned) [Compound 55a, (S or R) 4-(4-((1R,5S)-3,8-diazabicyclo[3.2.1]octan-3-yl)-6-chloro-2-((3-(dimethylamino)propyl)amino)-8-fluoroquinazolin-7-yl)naphthalen-2-ol]"
14000,64.1,461,"CN1CCCC[C@H]1COc1nc(N2CC3CCC(C2)N3)c2cc(Cl)c(-c3cc(O)cc4ccccc34)c(F)c2n1 (single isomer, unassigned) [Compound 56a, 4-((S or R)-4-((1R,5S)-3,8-diazabicyclo[3.2.1]octan-3-yl)-6-chloro-8-fluoro-2-((S)-1-methylpiperidin-2-yl)methoxy)quinazolin-7-yl)naphthalen-2-ol dihydrochloride]"
47.2,20.4,12.6,"Oc1cc(-c2c(Cl)cc3c(N4CC5CCC(C4)N5)nc(OCC45CCCN4CCC5)nc3c2F)c2ccccc2c1 (single isomer, unassigned) [Compound 58a, 4-((S or R)-4-((1R,5S)-3,8-diazabicyclo[3.2.1]octan-3-yl)-6-chloro-8-fluoro-2-((tetrahydro-1H-pyrrolin-7a(5H)-yl)methoxy)quinazolin-7-yl)naphthalen-2-o1]"
2080,45.4,182,"Oc1cc(-c2c(Cl)cc3c(N4CC5CCC(C4)N5)nc(OCCCN4CCC4)nc3c2F)c2ccccc2c1 (single isomer, unassigned) [Compound 59a, 4-((S or R)-2-(3-(azetidin-1-yl)propoxy)-4-((1R,5S)-3,8-diazabicyclo[3.2.1]octan-3-yl)-6-chloro-8-fluoroquinazolin-7-yl)naphthalen-2-ol]"
1580,17.8,134,"Oc1cc(-c2c(Cl)cc3c(N4CC5CCC(C4)N5)nc(OCCCN4CCCC4)nc3c2F)c2ccccc2c1 (single isomer, unassigned) [Compound 63a, 4-((S or R)-4-((1R,5S)-3,8-diazabicyclo[3.2.1]octan-3-yl)-6-chloro-8-fluoro-2-(3-(pyrrolidin-1-yl)propoxy)quinazolin-7-yl)naphthalen-2-ol]"
1020,38.3,139,"Oc1cc(-c2c(Cl)cc3c(N4CC5CCC(C4)N5)nc(OCCCN4CCCCC4)nc3c2F)c2ccccc2c1 (single isomer, unassigned) [Compound 66a, 4-((S or R)-4-((1R,5S)-3,8-diazabicyclo[3.2.1]octan-3-yl)-6-chloro-8-fluoro-2-(3-(piperidin-1-yl)propoxy)quinazolin-7-yl)naphthalen-2-ol]"
16700,214,646,"CN(C)CCCCCCOc1nc(N2C[C@H]3CC[C@@H](C2)N3)c2cc(Cl)c(-c3cc(O)cc4ccccc34)c(F)c2n1 (single isomer, unassigned) [Compound 68, (S or R)-4-(4-((1R,5S)-3,8-diazabicyclo[3.2.1]octan-3-yl)-6-chloro-2-((6-(dimethylamino)hexyl)oxy)-8-fluoroquinazolin-7-yl)naphthalen-2-ol dihydrochloride]"
> 100000,93.9,592,"CN(C)C1CCC(Oc2nc(N3CC4CCC(C3)N4)c3cc(Cl)c(-c4cc(O)cc5ccccc45)c(F)c3n2)C1 (single isomer, unassigned) [Compound 70a, 4-((S or R)-4-((1R,5S)-3,8-diazabicyclo[3.2.1]octan-3-yl)-6-chloro-2-((1S,3R or 1R,3S)-3-(dimethylamino)cyclopentyl)oxy)-8-fluoroquinazolin-7-yl)naphthalen-2-ol dihydrochloride]"

# The remaining lines, values behind:
Compound,IC50 [1] [nM],IC50 [2] [nM],IC50 [3] [nM]
"CN1CCN(c2nc(N3CC4CCC(C3)N4)c3cc(Cl)c(-c4cc(O)cc5ccccc45)c(F)c3n2)CC1 (single isomer, unassigned) [Compound 52a, 4-((S or R)-4-((1R,5S)-3,8-diazabicyclo[3.2.1]octan-3-yl)-6-chloro-8-fluoro-2-(4-methylpiperazin-1-yl)quinazolin-7-yl)naphthalen-2-ol]",28900,1140,9210
"Oc1cc(-c2c(Cl)cc3c(N4CC5CCC(C4)N5)nc(N4CCNCC4)nc3c2F)c2ccccc2c1 (single isomer, unassigned) [Compound 57b, 4-((R or S)-4-((1R,5S)-3,8-diazabicyclo[3.2.1]octan-3-yl)-6-chloro-8-fluoro-2-(piperazin-1-yl)quinazolin-7-yl)naphthalen-2-ol]",44500,419,7910
"CN(C)CCCCOc1nc(N2CC3CCC(C2)N3)c2cc(Cl)c(-c3cc(O)cc4ccccc34)c(F)c2n1 (single isomer, unassigned) [Compound 60a, 4-((S or R)-4-((1R,5S)-3,8-diazabicyclo[3.2.1]octan-3-yl)-6-chloro-2-(4-(dimethylamino)butoxy)-8-fluoroquinazolin-7-yl)naphthalen-2-ol]",5900,63,357
"CN1CCC2(C1)CN(c1nc(N3CC4CCC(C3)N4)c3cc(Cl)c(-c4cc(O)cc5ccccc45)c(F)c3n1)C2 (single isomer, unassigned) [Compound 61a, 4-((S or R)-4-((1R,5S)-3,8-diazabicyclo[3.2.1]octan-3-yl)-6-chloro-8-fluoro-2-(6-methyl-2,6-diazaspiro[3.4]octan-2-yl)quinazolin-7-yl)naphthalen-2-ol]",68300,230,1600
"CN(C)C1CN(c2nc(N3CC4CCC(C3)N4)c3cc(Cl)c(-c4cc(O)cc5cccc(F)c45)c(F)c3n2)C1 (single isomer, unassigned) [Compound 64b, 4-((R or S)-4-((1R,5S)-3,8-diazabicyclo[3.2.1]octan-3-yl)-6-chloro-2-(3-(dimethylamino)azetidin-1-yl)-8-fluoroquinazolin-7-yl)-5-fluoronaphthalen-2-ol]",1250,44.6,283
"CN(C)C1CN(c2nc(N3CC4CCC(C3)N4)c3cc(Cl)c(-c4cc(O)cc5cccc(Cl)c45)c(F)c3n2)C1 (single isomer, unassigned) [Compound 65b, 4-((R or S)-4-((1R,5S)-3,8-diazabicyclo[3.2.1]octan-3-yl)-6-chloro-2-(3-(dimethylamino)azetidin-1-yl)-8-fluoroquinazolin-7-yl)-5-chloronaphthalen-2-ol]",270,84.3,434
"CN(C)[C@H]1C[C@@H](Oc2nc(N3CC4CCC(C3)N4)c3cc(Cl)c(-c4cc(O)cc5ccccc45)c(F)c3n2)C1 (single isomer, unassigned) [Compound 69a, 4-((S or R)-4-((1R,5S)-3,8-diazabicyclo[3.2.1]octan-3-yl)-6-chloro-2-((1S,3R)-3-(dimethylamino)cyclobutoxy)-8-fluoroquinazolin-7-yl)naphthalen-2-ol dihydrochloride]",> 100000,225,1850
"CN(C)[C@H]1C[C@H](Oc2nc(N3CC4CCC(C3)N4)c3cc(Cl)c(-c4cc(O)cc5ccccc45)c(F)c3n2)C1 (single isomer, unassigned) [Compound 69b, 4-((S or R)-4-((1R,5S)-3,8-diazabicyclo[3.2.1]octan-3-yl)-6-chloro-2-((1R,3S)-3-(dimethylamino)cyclobutoxy)-8-fluoroquinazolin-7-yl)naphthalen-2-ol dihydrochloride]",> 100000,157,1960
